Source: ChEMBL document CHEMBL3414487, “Synthesis and biological activity of salinomycin conjugates with floxuridine” (Eur J Med Chem, 2015)
In brackets after ≈: the same amount, converted by molar mass.

What was measured:
[1] = Selectivity index, ratio of IC50 for mouse BALB/3T3 cells to IC50 for human SW707 cells; format: functional
[2] = Antiproliferative activity against human doxorubicin-resistant LoVo/DX cells assessed as growth inhibition after 72 hrs by SRB method; format: functional, cell-based
[3] = tested on: Staphylococcus epidermidis; experiment: Antimicrobial activity against methicillin-resistant Staphylococcus epidermidis 459/11 after 18 hrs by two-fold serial microdilution method; format: functional; settings: 459/11, 18 h
Staphylococcus aureus [4] = experiment: Antimicrobial activity against methicillin-resistant Staphylococcus aureus 586/12 after 18 hrs by two-fold serial microdilution method; format: functional; settings: 586/12, 18 h
[5] = tested on: Staphylococcus epidermidis; experiment: Antimicrobial activity against methicillin-resistant Staphylococcus epidermidis 467/11 after 18 hrs by two-fold serial microdilution method; format: functional; settings: 467/11, 18 h
[6] = tested on: Staphylococcus epidermidis; experiment: Antimicrobial activity against methicillin-resistant Staphylococcus epidermidis 469/11 after 18 hrs by two-fold serial microdilution method; format: functional; settings: 469/11, 18 h
[7] = Selectivity index, ratio of IC50 for mouse BALB/3T3 cells to IC50 for human HL60/Vinc cells; format: functional
Staphylococcus aureus [8] = experiment: Antimicrobial activity against methicillin-resistant Staphylococcus aureus 522/12 after 18 hrs by two-fold serial microdilution method; format: functional; settings: 522/12, 18 h
[9] = Antiproliferative activity against human vincristine-resistant HL60/Vinc cells assessed as growth inhibition after 72 hrs by MTT assay; format: functional; settings: Homo sapiens, HL60/vinc, 72 h
[10] = tested on: Staphylococcus epidermidis; experiment: Antimicrobial activity against methicillin-resistant Staphylococcus epidermidis 468/11 after 18 hrs by two-fold serial microdilution method; format: functional; settings: 468/11, 18 h
[11] = tested on: Staphylococcus epidermidis; experiment: Antimicrobial activity against methicillin-resistant Staphylococcus epidermidis 461/11 after 18 hrs by two-fold serial microdilution method; format: functional; settings: 461/11, 18 h
Staphylococcus aureus [12] = experiment: Antimicrobial activity against methicillin-resistant Staphylococcus aureus 462/11 after 18 hrs by two-fold serial microdilution method; format: functional; settings: 462/11, 18 h
[13] = Selectivity index, ratio of IC50 for mouse BALB/3T3 cells to IC50 for human LS180 cells; format: functional
[14] = Antiproliferative activity against human HL60 cells assessed as growth inhibition after 72 hrs by MTT assay; format: functional, cell-based; settings: HL-60, 72 h
Staphylococcus aureus [15] = experiment: Antimicrobial activity against methicillin-resistant Staphylococcus aureus 537/12 after 18 hrs by two-fold serial microdilution method; format: functional; settings: 537/12, 18 h
Staphylococcus aureus [16] = experiment: Antimicrobial activity against methicillin-resistant Staphylococcus aureus 452/11 after 18 hrs by two-fold serial microdilution method; format: functional; settings: 452/11, 18 h
HT-29 [17] = experiment: Selectivity index, ratio of IC50 for mouse BALB/3T3 cells to IC50 for human HT-29 cells; format: functional
[18] = Antiproliferative activity against human SW707 cells assessed as growth inhibition after 72 hrs by SRB method; format: functional, cell-based; settings: Homo sapiens, SW707, 72 h
[19] = tested on: Staphylococcus epidermidis; experiment: Antimicrobial activity against methicillin-resistant Staphylococcus epidermidis 460/11 after 18 hrs by two-fold serial microdilution method; format: functional; settings: 460/11, 18 h
[20] = Antiproliferative activity against human LS180 cells assessed as growth inhibition after 72 hrs by SRB method; format: functional, cell-based; settings: Homo sapiens, LS180, 72 h
[21] = tested on: Staphylococcus epidermidis; experiment: Antimicrobial activity against Staphylococcus epidermidis ATCC 35984 after 18 hrs by two-fold serial microdilution method; format: functional; settings: ATCC 35984, 18 h
Staphylococcus aureus [22] = experiment: Antimicrobial activity against Staphylococcus aureus ATCC 25923 after 18 hrs by two-fold serial microdilution method; format: functional; settings: ATCC 25923, 18 h
[23] = tested on: Staphylococcus epidermidis; experiment: Antimicrobial activity against methicillin-resistant Staphylococcus epidermidis 488/11 after 18 hrs by two-fold serial microdilution method; format: functional; settings: 488/11, 18 h
HT-29 [24] = experiment: Antiproliferative activity against human HT-29 cells assessed as growth inhibition after 72 hrs by SRB method; format: functional, cell-based; settings: Homo sapiens, HT-29, 72 h
Staphylococcus aureus [25] = experiment: Antimicrobial activity against Staphylococcus aureus […] 4163 after 18 hrs by two-fold serial microdilution method; format: functional
HL-60 [26] = experiment: Selectivity index, ratio of IC50 for mouse BALB/3T3 cells to IC50 for human HL60 cells; format: functional
Staphylococcus aureus [27] = experiment: Antimicrobial activity against methicillin-resistant Staphylococcus aureus 456/11 after 18 hrs by two-fold serial microdilution method; format: functional; settings: 456/11, 18 h
Staphylococcus aureus [28] = experiment: Antimicrobial activity against methicillin-resistant Staphylococcus aureus 573/12 after 18 hrs by two-fold serial microdilution method; format: functional; settings: 573/12, 18 h
Staphylococcus aureus [29] = experiment: Antimicrobial activity against methicillin-resistant Staphylococcus aureus 572/12 after 18 hrs by two-fold serial microdilution method; format: functional; settings: 572/12, 18 h
LoVo [30] = experiment: Antiproliferative activity against human LoVo cells assessed as growth inhibition after 72 hrs by SRB method; format: functional, cell-based; settings: Homo sapiens, LoVo, 72 h
Staphylococcus aureus [31] = experiment: Antimicrobial activity against methicillin-resistant Staphylococcus aureus 585/12 after 18 hrs by two-fold serial microdilution method; format: functional; settings: 585/12, 18 h
[32] = tested on: Staphylococcus epidermidis; experiment: Antimicrobial activity against methicillin-resistant Staphylococcus epidermidis 466/11 after 18 hrs by two-fold serial microdilution method; format: functional; settings: 466/11, 18 h
[33] = tested on: Staphylococcus epidermidis; experiment: Antimicrobial activity against Staphylococcus epidermidis ATCC 12228 after 18 hrs by two-fold serial microdilution method; format: functional; settings: ATCC 12228, 18 h
LoVo [34] = experiment: Selectivity index, ratio of IC50 for mouse BALB/3T3 cells to IC50 for human LoVo cells; format: functional
[35] = tested on: Staphylococcus epidermidis; experiment: Antimicrobial activity against methicillin-resistant Staphylococcus epidermidis 489/11 after 18 hrs by two-fold serial microdilution method; format: functional; settings: 489/11, 18 h
Staphylococcus aureus [36] = experiment: Antimicrobial activity against Staphylococcus aureus ATCC 29213 after 18 hrs by two-fold serial microdilution method; format: functional; settings: ATCC 29213, 18 h
[37] = tested on: Staphylococcus epidermidis; experiment: Antimicrobial activity against methicillin-resistant Staphylococcus epidermidis 470/11 after 18 hrs by two-fold serial microdilution method; format: functional; settings: 470/11, 18 h
HL-60 [38] = experiment: Resistance index, ratio of IC50 for human HL60/Vinc cells to IC50 for human HL60 cells
Staphylococcus aureus [39] = experiment: Antimicrobial activity against methicillin-resistant Staphylococcus aureus 514/11 after 18 hrs by two-fold serial microdilution method; format: functional; settings: 514/11, 18 h
Staphylococcus aureus [40] = experiment: Antimicrobial activity against Staphylococcus aureus ATCC 6538 after 18 hrs by two-fold serial microdilution method; format: functional; settings: ATCC 6538, 18 h
BALB/3T3 = experiment: Antiproliferative activity against mouse BALB/3T3 cells assessed as growth inhibition after 72 hrs by SRB method; format: cell-based; settings: BALB/3T3, 72 h
LoVo [41] = experiment: Resistance index, ratio of IC50 for human LoVo/DX cells to IC50 for human LoVo cells
[42] = Selectivity index, ratio of IC50 for mouse BALB/3T3 cells to IC50 for human LoVo/DX cells; format: functional

For `O=c1[nH]cc(F)c(=O)[nH]1` [FLUOROURACIL], the “Selectivity Index” value [1] was 0.16, the IC50 [2] was 6 µM and the MIC [3] was 3.85 µM (≈ 0.501 µg/mL). It also gave an MIC (Staphylococcus aureus [4]) of 3.85 µM (≈ 0.501 µg/mL), an MIC [5] of 0.48 µM (≈ 0.0624 µg/mL) and an MIC [6] of 1.92 µM (≈ 0.25 µg/mL). The “Selectivity Index” value [7] was 0.15, the MIC (Staphylococcus aureus [8]) was 7.69 µM (≈ 1 µg/mL) and the IC50 [9] was 21.2 µM. It also gave an MIC [10] of 0.48 µM (≈ 0.0624 µg/mL), an MIC [11] of 0.96 µM (≈ 0.125 µg/mL) and an MIC (Staphylococcus aureus [12]) of 7.69 µM (≈ 1 µg/mL). For the same compound, the “Selectivity Index” value [13] was 0.08, the IC50 [14] was 22.5 µM and the MIC (Staphylococcus aureus [15]) was 7.69 µM (≈ 1 µg/mL). For the same compound, the MIC (Staphylococcus aureus [16]) was 3.85 µM (≈ 0.501 µg/mL), the “Selectivity Index” value (HT-29 [17]) was 0.13 and the IC50 [18] was 20.5 µM. The MIC [19] was 1.92 µM (≈ 0.25 µg/mL), the IC50 [20] was 38.9 µM and the MIC [21] was 1.92 µM (≈ 0.25 µg/mL). The MIC (Staphylococcus aureus [22]) was 1.92 µM (≈ 0.25 µg/mL), the MIC [23] was 1.92 µM (≈ 0.25 µg/mL) and the IC50 (HT-29 [24]) was 25.1 µM. For the same compound, the MIC (Staphylococcus aureus [25]) was 1.92 µM (≈ 0.25 µg/mL), the “Selectivity Index” value (HL-60 [26]) was 0.14 and the MIC (Staphylococcus aureus [27]) was 3.85 µM (≈ 0.501 µg/mL). The MIC (Staphylococcus aureus [28]) was 3.85 µM (≈ 0.501 µg/mL), the MIC (Staphylococcus aureus [29]) was 3.85 µM (≈ 0.501 µg/mL) and the IC50 (LoVo [30]) was 4.69 µM. It also gave an MIC (Staphylococcus aureus [31]) of 3.85 µM (≈ 0.501 µg/mL), an MIC [32] of 0.48 µM (≈ 0.0624 µg/mL) and an MIC [33] of 3.85 µM (≈ 0.501 µg/mL). The “Selectivity Index” value (LoVo [34]) was 0.69, the MIC [35] was 0.48 µM (≈ 0.0624 µg/mL) and the MIC (Staphylococcus aureus [36]) was 3.85 µM (≈ 0.501 µg/mL). The MIC [37] was 0.48 µM (≈ 0.0624 µg/mL), the “Ratio IC50” value (HL-60 [38]) was 0.94 and the MIC (Staphylococcus aureus [39]) was 3.85 µM (≈ 0.501 µg/mL). The MIC (Staphylococcus aureus [40]) was 3.85 µM (≈ 0.501 µg/mL), the IC50 (BALB/3T3) was 3.23 µM and the “Ratio IC50” value (LoVo [41]) was 1.28. For the same compound, the “Selectivity Index” value [42] was 0.54.

In the case of `CC[C@@H](C(=O)[C@@H](C)[C@@H](O)[C@H](C)[C@@H]1O[C@@H]([C@@H](CC)C(=O)O)CC[C@@H]1C)[C@H]1O[C@]2(C=C[C@@H](O)[C@]3(CC[C@@](C)([C@H]4CC[C@](O)(CC)[C@H](C)O4)O3)O2)[C@H](C)C[C@@H]1C` [SALINOMYCIN], the “Selectivity Index” value [1] is reported as 5.39, the IC50 [2] is reported as 0.76 µM and the MIC [3] is reported as 2.66 µM (≈ 2 µg/mL). It also gave an MIC (Staphylococcus aureus [4]) of 2.66 µM (≈ 2 µg/mL), an MIC [5] of 2.66 µM (≈ 2 µg/mL) and an MIC [6] of 2.66 µM (≈ 2 µg/mL). The “Selectivity Index” value [7] was 4.46, the MIC (Staphylococcus aureus [8]) was 2.66 µM (≈ 2 µg/mL) and the IC50 [9] was 2.09 µM. The MIC [10] was 2.66 µM (≈ 2 µg/mL), the MIC [11] was 2.66 µM (≈ 2 µg/mL) and the MIC (Staphylococcus aureus [12]) was 2.66 µM (≈ 2 µg/mL). The “Selectivity Index” value [13] was 15.3, the IC50 [14] was 0.29 µM and the MIC (Staphylococcus aureus [15]) was 2.66 µM (≈ 2 µg/mL). The MIC (Staphylococcus aureus [16]) was 1.33 µM (≈ 0.999 µg/mL), the “Selectivity Index” value (HT-29 [17]) was 9.06 and the IC50 [18] was 1.73 µM. For the same compound, the MIC [19] was 2.66 µM (≈ 2 µg/mL), the IC50 [20] was 0.61 µM and the MIC [21] was 2.66 µM (≈ 2 µg/mL). It also gave an MIC (Staphylococcus aureus [22]) of 2.66 µM (≈ 2 µg/mL), an MIC [23] of 2.66 µM (≈ 2 µg/mL) and an IC50 (HT-29 [24]) of 1.03 µM. For the same compound, the MIC (Staphylococcus aureus [25]) was 2.66 µM (≈ 2 µg/mL), the “Selectivity Index” value (HL-60 [26]) was 32.17 and the MIC (Staphylococcus aureus [27]) was 1.33 µM (≈ 0.999 µg/mL). For the same compound, the MIC (Staphylococcus aureus [28]) was 1.33 µM (≈ 0.999 µg/mL), the MIC (Staphylococcus aureus [29]) was 1.33 µM (≈ 0.999 µg/mL) and the IC50 (LoVo [30]) was 0.36 µM. It also gave an MIC (Staphylococcus aureus [31]) of 2.66 µM (≈ 2 µg/mL), an MIC [32] of 2.66 µM (≈ 2 µg/mL) and an MIC [33] of 2.66 µM (≈ 2 µg/mL). The “Selectivity Index” value (LoVo [34]) was 25.92, the MIC [35] was 2.66 µM (≈ 2 µg/mL) and the MIC (Staphylococcus aureus [36]) was 2.66 µM (≈ 2 µg/mL). For the same compound, the MIC [37] was 2.66 µM (≈ 2 µg/mL), the “Ratio IC50” value (HL-60 [38]) was 7.21 and the MIC (Staphylococcus aureus [39]) was 2.66 µM (≈ 2 µg/mL). For the same compound, the MIC (Staphylococcus aureus [40]) was 2.66 µM (≈ 2 µg/mL), the IC50 (BALB/3T3) was 9.33 µM and the “Ratio IC50” value (LoVo [41]) was 2.11. For the same compound, the “Selectivity Index” value [42] was 12.28.
